Read-outs that look alike come from different tables or passages of the source.
Legend:
[1] = test system: Zika virus, Dengue, Yellow Fever Virus, West Nile Virus; test: organism not typed; type: cell-based; conditions: read-out: EC50, viral replication
[2] = test system: Raji (Burkitt Lymphoma cell line); test: Raji cell viability / proliferation; conditions: Homo sapiens, read-out: IC50, Raji cell proliferation
[3] = test system: Puerto Rica strain of infectious Zika virus; test: microbe, parasite or virus in culture; type: cell-based; conditions: Vero
MB002 cells = test: MTT assay, cell proliferation; type: cell-based
UW-426 (Hh subcategory) = test: MTT assay, Medulloblastoma cell line; type: cell-based; conditions: UW426
Experimental: (§1) The EC50 values shown below in Table 9 were determined for Isis-11 (E2) by MTT assay in the Medulloblastoma cell lines as indicated.

Shh-NPD (Hh subcategory) = test: MTT assay, Medulloblastoma cell line; type: cell-based
Experimental: as §1

[4] = test system: Gli-luciferace activity in the SUFU-KO-light cells; test: SUFU-KO-Light assay, inhibition of Gli-luciferase activity; type: cell-based; conditions: read-out: IC50 (μM) SUFU-KO-Light; inhibition of Gli-luciferase activity; listed as Isis-11 (−isomer/E2)
From the text: IC50 SUFO-KO-Light values are for inhibition of Gli-luciferace activity in the SUFU-KO-light cells developed by the James Chen laboratory at Stanford University.

[5] = Maximum tolerated dose (MTD) in mice; type: in vivo; conditions: AG129 mice; for Alive/total / MDD ± SD (average day of death) / Mean wt. change (g) ± SD: q 3 d × 3; for Alive/total / MDD ± SD (average day of death): 14 days; for Mean wt. change (g) ± SD: weight on 0 and 2 days post-initial treatment
Experimental: Without wishing to be bound by theory, the purpose of this study is to further identify the MTD and dosing frequency that can be used for Isis-11 (E2) in future antiviral efficacy studies.
Animals: 21 AG129 mice produced by an in-house colony were used. Groups of animals were assigned by weight to experimental groups and individually marked with ear tags.
Test agent: Isis-11 (E2) was provided by University of Utah for testing in the mouse model.
[…] Additional treatments were administered at various time points. Mice were monitored for mortality until 14 days post-initial treatment (dpi). Individual weights were measured daily 0-10 dpi and on 14 dpi.
Statistical analysis: Survival data were analyzed using the Wilcoxon log-rank survival analysis and all other statistical analyses were done using one-way ANOVA using a Bonferroni group comparison (Prism 5, GraphPad Software, Inc.).

SARS-CoV-2 [6] = conditions: infected Vero cells, 24 hours post-infection, Western blot
SARS-CoV-2 [7] = test: microbe, parasite or virus in culture; conditions: Severe acute respiratory syndrome coronavirus 2, Vero C1008, read-out: EC50, inhibition of cell death
[8] = Mouse PK evaluation, plasma, IV; conditions: CD-1 mice; for AUC(0-inf): AUCInf; for MRT inf: MRTInf_obs
[9] = test system: Rift Valley Fever Virus (RVFV); test: microbe, parasite or virus in culture; type: cell-based
[10] = test system: SUFU-KO-Light cells expressing Gli-luciferase; test: Dose-effect curves, dual-Glo luciferase, Compusyn; type: cell-based
[11] = CD-1, mouse, in vivo, iv, 3 mg/kg, Mean, 3 mg/kg IV
[12] = CD-1, mouse, in vivo, iv, 3 mg/kg, Mouse 1, 3 mg/kg IV
[13] = CD-1, mouse, in vivo, iv, 3 mg/kg, Mouse 2, 3 mg/kg IV

CN(C)CCCn1c(N)nc2ccc3c(c21)CC(CN(C)C)O3 (single isomer, unassigned) [Compound E2]
EC50 [1]: 290 to 320 nM
IC50 [2]: 200 nM
EC50 [3]: 80 nM
EC50 (MB002 cells; MB002): 430 nM
IC50 (MB002 cells; MB002, read-out: Dose E2): 320 nM
EC50 (UW-426 (Hh subcategory)): 105 nM
EC50 (Shh-NPD (Hh subcategory)): 720 nM
IC50 [4]: 0.1 µM
Alive/total ([5]; 1.0 mg/kg/d): 3/3
MDD ± SD (average day of death) ([5]; 1.0 mg/kg/d): >14.0 ± 0.0 days
Mean wt. change (g) ± SD ([5]; 1.0 mg/kg/d): -1.2 ± 0.8 g
tolerability ([5]; 3.2 mg/kg eod or q3d): well-tolerated
mortality and weight loss ([5]; 3.2 mg/kg i.p.): no mortality or weight loss
Alive/total ([5]; 3.2 mg/kg/d): 3/3
MDD ± SD (average day of death) ([5]; 3.2 mg/kg/d): >14.0 ± 0.0 days
Mean wt. change (g) ± SD ([5]; 3.2 mg/kg/d): -0.1 ± 0.8 g
mortality (animals succumbing to toxicity) ([5]; 10 mg/kg i.p., eod or q3d): 2 of 5
body weight ([5]; 10 mg/kg i.p., between 0 and 14 days after initial treatment): some transient weight loss, but an overall weight gain
mortality ([5]; 32 mg/kg i.p., eod for 4 treatments or q3d for 3 treatments): all succumbed
body weight ([5]; 32 mg/kg i.p., eod or q3d): weight loss
tolerability, second study ([5]; 3.2 or 1.0 mg/kg/d once every third day): well-tolerated with no indication of toxicity
tolerability ([5]; 10 or 32 mg/kg, eod or q3d): toxic
toxicity, initial study ([5]; administered bid, once a day at total daily doses of 32, 10, or 3.2 mg/kg/d): substantial toxicity
MTD at 14 days ([5]; mouse, in vivo, ip): 3.2 mg/kg
SARS-CoV-2 nucleocapsid protein levels (SARS-CoV-2 [6]): dose-dependent reduction of viral protein
EC50 (SARS-CoV-2 [7]): 142 nM
AUC_%Extrap_obs, Mean ([8]; 3 mg/kg IV): 22.3%
AUC_%Extrap_obs, Mouse 1 ([8]; 3 mg/kg IV): 10.4%
AUC_%Extrap_obs, Mouse 2 ([8]; 3 mg/kg IV): 18.9%
AUC_%Extrap_obs, Mouse 3 ([8]; 3 mg/kg IV): 37.6%
AUClast, Mean ([8]; 3 mg/kg IV): 439 ng·h/mL
AUClast, Mouse 1 ([8]; 3 mg/kg IV): 472 ng·h/mL
AUClast, Mouse 2 ([8]; 3 mg/kg IV): 360 ng·h/mL
AUClast, Mouse 3 ([8]; 3 mg/kg IV): 487 ng·h/mL
AUClast/D, Mean ([8]; 3 mg/kg IV): 146
AUClast/D, Mouse 1 ([8]; 3 mg/kg IV): 157
AUClast/D, Mouse 2 ([8]; 3 mg/kg IV): 120
AUClast/D, Mouse 3 ([8]; 3 mg/kg IV): 162
C0, Mean ([8]; 3 mg/kg IV): 794 ng/mL
C0, Mouse 1 ([8]; 3 mg/kg IV): 861 ng/mL
C0, Mouse 2 ([8]; 3 mg/kg IV): 801 ng/mL
C0, Mouse 3 ([8]; 3 mg/kg IV): 720 ng/mL
Cl_obs, Mean ([8]; 3 mg/kg IV): 91 mL/min/kg
Cl_obs, Mouse 1 ([8]; 3 mg/kg IV): 95.0 mL/min/kg
Cl_obs, Mouse 2 ([8]; 3 mg/kg IV): 113 mL/min/kg
Cl_obs, Mouse 3 ([8]; 3 mg/kg IV): 64.1 mL/min/kg
Vss_obs, Mean ([8]; 3 mg/kg IV): 71.1 L/kg
Vss_obs, Mouse 1 ([8]; 3 mg/kg IV): 43.7 L/kg
Vss_obs, Mouse 2 ([8]; 3 mg/kg IV): 82.5 L/kg
Vss_obs, Mouse 3 ([8]; 3 mg/kg IV): 87.0 L/kg
Plasma concentration, Mean ([8]; 3 mg/kg IV, 0.083 h): 457 ng/mL
Plasma concentration, Mouse 1 ([8]; 3 mg/kg IV, 0.083 h): 445 ng/mL
Plasma concentration, Mouse 2 ([8]; 3 mg/kg IV, 0.083 h): 452 ng/mL
Plasma concentration, Mouse 3 ([8]; 3 mg/kg IV, 0.083 h): 473 ng/mL
Plasma concentration, Mean ([8]; 3 mg/kg IV, 0.25 h): 155 ng/mL
Plasma concentration, Mouse 1 ([8]; 3 mg/kg IV, 0.25 h): 118 ng/mL
Plasma concentration, Mouse 2 ([8]; 3 mg/kg IV, 0.25 h): 143 ng/mL
Plasma concentration, Mouse 3 ([8]; 3 mg/kg IV, 0.25 h): 203 ng/mL
Plasma concentration, Mean ([8]; 3 mg/kg IV, 0.5 h): 98 ng/mL
Plasma concentration, Mouse 1 ([8]; 3 mg/kg IV, 0.5 h): 158 ng/mL
Plasma concentration, Mouse 2 ([8]; 3 mg/kg IV, 0.5 h): 60.2 ng/mL
Plasma concentration, Mouse 3 ([8]; 3 mg/kg IV, 0.5 h): 75.5 ng/mL
Plasma concentration, Mean ([8]; 3 mg/kg IV, 1 h): 51.1 ng/mL
Plasma concentration, Mouse 1 ([8]; 3 mg/kg IV, 1 h): 64.0 ng/mL
Plasma concentration, Mouse 2 ([8]; 3 mg/kg IV, 1 h): 42.7 ng/mL
Plasma concentration, Mouse 3 ([8]; 3 mg/kg IV, 1 h): 46.5 ng/mL
Plasma concentration, Mean ([8]; 3 mg/kg IV, 2 h): 27.2 ng/mL
Plasma concentration, Mouse 1 ([8]; 3 mg/kg IV, 2 h): 31.9 ng/mL
Plasma concentration, Mouse 2 ([8]; 3 mg/kg IV, 2 h): 26.8 ng/mL
Plasma concentration, Mouse 3 ([8]; 3 mg/kg IV, 2 h): 22.8 ng/mL
Plasma concentration, Mean ([8]; 3 mg/kg IV, 4 h): 19.0 ng/mL
Plasma concentration, Mouse 1 ([8]; 3 mg/kg IV, 4 h): 25.4 ng/mL
Plasma concentration, Mouse 2 ([8]; 3 mg/kg IV, 4 h): 11.7 ng/mL
Plasma concentration, Mouse 3 ([8]; 3 mg/kg IV, 4 h): 19.8 ng/mL
Plasma concentration, Mean ([8]; 3 mg/kg IV, 8 h): 8.9 ng/mL
Plasma concentration, Mouse 1 ([8]; 3 mg/kg IV, 8 h): 8.79 ng/mL
Plasma concentration, Mouse 2 ([8]; 3 mg/kg IV, 8 h): 7.76 ng/mL
Plasma concentration, Mouse 3 ([8]; 3 mg/kg IV, 8 h): 10.2 ng/mL
Plasma concentration, Mean ([8]; 3 mg/kg IV, 24 h): 6.9 ng/mL
Plasma concentration, Mouse 1 ([8]; 3 mg/kg IV, 24 h): 4.57 ng/mL
Plasma concentration, Mouse 2 ([8]; 3 mg/kg IV, 24 h): 4.10 ng/mL
Plasma concentration, Mouse 3 ([8]; 3 mg/kg IV, 24 h): 12.1 ng/mL
AUC(0-inf) [8, 11]: 485 ng·h/mL
AUC(0-inf) [8, 12]: 526 ng·h/mL
AUC(0-inf) [8, 13]: 444 ng·h/mL
MRT inf [8, 11]: 9.9 h
MRT inf [8, 12]: 7.67 h
MRT inf [8, 13]: 12.2 h
half-life ([8]; CD-1, mouse, in vivo, iv, 3 mg/kg, T1/2, Mouse 2, 3 mg/kg IV): 14.2 h
activity relative to BCX4430 against RVFV [9]: 92 fold
EC50 ([9]; Rift Valley fever virus): 450 nM
EC50 ([10]; read-out: Dose E2): 63.5 nM
EC50 ([10]; read-out: EC50 as single agent): 60 nM

Reference: patent publication US12227512B2, “Benzimidazoles and methods of using same” (priority 2019, dated 2025)
